Reference: US4853403A, “3-phenylthiomethylstyrene derivative, process for preparing the same, and antiallergic agent and tyrosinekinase inhibiting agent containing the same” (Kanegafuchi Kagaku Kogyo Kabushiki Kaisha, priority 1985, dated 1989)

Columns and labels:
[1] = system: homologous passive cutaneous anaphylaxis (PCA); assay: Inhibitory activity against homologous passive cutaneous anaphylaxis (PCA) in rats; assay type: in vivo, rat (male Wistar); conditions: 100 mg/kg, oral, 1 hour before the antigen
Procedure: [II]Inhibitory activity against homologous passive cutaneous anaphylaxis (PCA) in rats
Antiserum was prepared according to I. Mota [Immunology, 7, 681(1964)] and the PCA reaction was conducted according to Maruyama et al. [Nippon yakurigakkaishi, 74, 179(1978)].
(1) Preparation of antiserum
An ovalbumin solution (2 mg/ml) was injected intramuscularly into both thighs of male Wistar rats weighing 200 to 260 g in a volume of 0.5 ml/100 g body weight, and pertussis vaccine (Bordetella pertussis, 2×10^10 /ml, Chibaken Kessei Kenkyujo) was intraperitoneally administered at 1 ml/rat. Twelve days later, blood was taken from posterior aorta under ether anesthesia and antiserum was stored at -80° C.
Group of 4 male Wistar rats weighing 180 to 210 g were employed. Back of the animals was shaved and each 0.05 ml of antiserum (1:32 dilution) was injected intradermally at four sites on the back. After 48 hours, 1 ml of a mixture of ovalbumin (1 mg/ml) and Evans blue (5 mg/ml) was injected intravenously into the tail. 30 Minutes later, the animals were killed under ether anesthesia. The blue-dyed area (mm^2) formed was measured and an inhibition rate(%) was calculated as compared with control.
Test compound suspended in a 2.5% acacia containing 0.2% Tween 80 was administered orally in a volume of 0.5 ml/100 g body weight 1 hour before the antigen. Tranilast was administered orally 30 minutes before the antigen.

[2] = target: T1, epidermal growth factor acceptor-tyrosinekinase complex (Homo sapiens, UniProt P00533); assay: Tyrosinekinase inhibitory activity (A-431 membrane specimen, EGF-stimulated, [γ-32P]ATP); assay type: biochemical, human (A-431 cell line derived from human cancerous cell); conditions: read-out: Inhibition rate (tyrosinekinase)
T1 construct: endogenous in cells; host or cells: A-431 (membrane specimen, not solubilized)
T1 sequence (P00533 25-1210): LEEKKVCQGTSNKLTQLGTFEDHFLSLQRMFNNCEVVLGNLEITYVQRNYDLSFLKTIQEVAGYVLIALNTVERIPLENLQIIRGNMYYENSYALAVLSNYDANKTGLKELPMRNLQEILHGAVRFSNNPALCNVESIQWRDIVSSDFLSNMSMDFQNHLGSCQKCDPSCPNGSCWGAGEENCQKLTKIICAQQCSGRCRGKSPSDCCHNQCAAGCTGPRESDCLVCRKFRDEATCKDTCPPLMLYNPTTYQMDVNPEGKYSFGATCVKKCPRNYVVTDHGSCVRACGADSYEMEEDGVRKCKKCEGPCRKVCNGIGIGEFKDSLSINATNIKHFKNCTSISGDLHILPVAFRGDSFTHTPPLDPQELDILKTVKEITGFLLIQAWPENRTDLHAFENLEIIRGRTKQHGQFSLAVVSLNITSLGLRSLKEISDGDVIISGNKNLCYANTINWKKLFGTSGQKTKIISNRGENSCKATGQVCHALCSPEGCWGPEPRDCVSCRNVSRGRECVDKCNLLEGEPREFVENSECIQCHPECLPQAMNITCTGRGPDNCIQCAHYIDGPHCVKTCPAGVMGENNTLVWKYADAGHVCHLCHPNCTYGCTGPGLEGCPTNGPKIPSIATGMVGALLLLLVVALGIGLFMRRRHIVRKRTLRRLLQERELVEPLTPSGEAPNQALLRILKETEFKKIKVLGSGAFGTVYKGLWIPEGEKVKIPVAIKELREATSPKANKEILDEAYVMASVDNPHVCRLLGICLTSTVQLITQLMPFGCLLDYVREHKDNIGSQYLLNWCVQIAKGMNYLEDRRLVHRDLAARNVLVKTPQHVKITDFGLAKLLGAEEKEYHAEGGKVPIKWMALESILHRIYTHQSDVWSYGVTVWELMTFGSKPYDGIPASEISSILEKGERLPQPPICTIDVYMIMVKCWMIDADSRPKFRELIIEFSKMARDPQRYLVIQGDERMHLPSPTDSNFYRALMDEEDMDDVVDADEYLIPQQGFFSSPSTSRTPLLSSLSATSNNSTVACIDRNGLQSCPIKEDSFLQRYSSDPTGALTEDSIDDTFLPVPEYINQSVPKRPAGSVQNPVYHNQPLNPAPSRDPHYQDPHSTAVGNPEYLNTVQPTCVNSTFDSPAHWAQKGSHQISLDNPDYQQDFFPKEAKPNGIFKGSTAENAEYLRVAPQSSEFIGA
T1 sequence (P01132 977-1029 partner limits assumed): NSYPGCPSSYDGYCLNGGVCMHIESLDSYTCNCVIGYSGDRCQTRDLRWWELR
Procedure: Tyrosinekinase inhibitory activity of the compound of the present invention was measured by employing a method for measuring tyrosinekinase activity by G. Carpentor or by S. Cohen et al. [J. Biol. Chem., 254, 4884 (1979); J. Biol. Chem., 257, 1523 (1982)].
Cell line A-431 derived from human cancerous cell was cultured at 37° C. under the condition of 5% CO2 in Dulbecco's modified Eagle medium (made by DAINIPPON PHARMACEUTICAL CO., LTD.) containing 10% fetal bovine serum, 50 μg/ml of streptomycin, 50 IU/ml of penicillin G and 50 μg/ml of canamycin. The obtained cells were treated according to the above Cohen or Graham et al. to give membrane specimen containing epidermal growth factor acceptor-tyrosinekinase complex (hereinafter referred to as "membrane specimen"). The membrane specimen was employed in the following measurement without solubilization.
Sample dissolved in dimethylsulfoxide was added to a mixture of 20 mM of N-2-hydroxyethylpyperadino-N'-2-ethanesulfonate buffer (pH 7.4), 1 mM of MnCl2, 7.5 μg of bovine serum albumin and the membrane specimen (10 μg as protein). After incubation at 0° C. for 5 minutes, 100 ng of epidermal growth factor (hereinafter referred to as "EGF" was added and the mixture was further incubated at 0° C. for 15 minutes. [γ-^32 P]ATP (3000 Ci/mmol, 0.1 μCi) was added to make final volume of 70 μl. After incubation at 0° C. for 15 minutes, 50 μl of the reaction solution was soaked into Wattman 3 MM filter paper and immediately the reaction was stopped by 10% trichloroacetic acid-10 mM sodium pyrophosphate aqueous solution. The filter paper was sufficiently washed with the same solution and then washed with ethanol and dried. Radioactivity present in the filter paper was measured by liquid scintillation counter (A). Similarly, radioactivity was measured in case of the reaction without EGF (B), the reaction without the sample (C), and the reaction without both EGF and the sample (D) as a control.
Tyrosinekinase inhibition rate (%) was calculated by the following equation. [formula]

[3] = system: SRS-A biosynthesis or release; assay: SRS-A biosynthesis or release inhibitory activity (ovalbumin-challenged sensitized guinea pig lung fragments, bioassay on guinea pig ileum); assay type: cell-based, guinea pig (male Hartley); conditions: Cavia porcellus, read-out: Inhibition rate (SRS-A biosynthesis or release)
Procedure: [I] SRS-A biosynthesis or release inhibitory activity
SRS-A biosynthesis or release inhibitory activity was examined according to Koda et al. [Nippon yakurigakkaishi, 66, 194(1970)] and Kono-Watanabe et al. [J. Immunology, 125, 946(1980)].
Male Hartley guinea pigs weighing 350 to 450 g were sensitized by injecting once each 1 ml of an ovalbumin (100 mg/ml) into gluteus and peritoneal cavity. Four weeks after the injection, the animals were killed and then immediately the lung was perfused with cooled Tyrode's solution to remove blood. The lung was chopped into about 2 mm fragments and 500 mg of the fragments were suspended in 4.84 ml of Tyrode's solution, to which 0.01 ml of the test compound dissolved in dimethylsulfoxide (DMSO) was added. After incubation at 37° C. for 10 minutes, 0.15 ml of an ovalbumin (10 mg/ml) was added, followed by incubation at 37° C. for 20 minutes. In control, DMSO was added and the reaction was conducted in the same manner. The reaction mixture was filtered with gauze.
An amount of SRS-A in the filtrate was bioassayed using guinea pig ileum; i.e. the ileum (length: 2 to 3 cm) was suspended in Magnus tube containing aerated Tyrode's solution at 31° C. and, after the plateau of contraction was obtained, an amount of SRS-A in the above filtrate was bioassayed in the presence of 1 μM of atropine and 1 μM of pyrilamine. Inhibition rate (%) was calculated from a contraction in control as 100.

[4] = system: antigen-induced anaphylactic shock death; assay: Protective effect against anaphylactic shock in actively sensitized guinea pigs; assay type: in vivo, guinea pig (male); conditions: Cavia porcellus; 100 mg/kg, oral, 30 minutes before antigen inhalation; survival 90 minutes or more; read-out: Protecting Effect (Number of test animal survivied/Number of test animal) (converted)
Procedure: [III] Protective effect against anaphylactic shock in actively sensitized guinea pigs
Antigen-induced anaphylactic shock death was observed according to John P. Devlin [Pulmonary and Antiallergic Drugs, John Wiley & Sons, 155 (1985)].
Each 100 mg/kg of ovalbumin dissolved in physiological saline was injected into peritoneal cavity and into gluteus of male guinea pigs weighing 250 to 350 g. 3 Days later, the animals were further injected intraperitoneally with ovalbumin (100 mg/kg). Those animals were employed for testing 3 to 4 weeks after first sensitization. Actively sensitized guinea pigs were pretreated subcutaneously with pyrilamine (1 mg/kg, 30 min.) to suppress histamine-dependent response and with propanolol ([…], 10 min.) to enhance the response induced by other than histamine before the antigen.
The animal was placed in a desiccator with a capacity of about 5 l and 0.5% aqueous solution of ovalbumin was inhaled with ultrasonic type nebulizer for five minutes. Anaphylactic shock death was observed and the animals survived for 90 minutes or more after antigen were estimated to be protected. The compounds of the present invention and antiasmatic agent were administered orally 30 minutes before the antigen inhalation. The control received vehicle alone similarly.

Row | SMILES | Inhibition rate (PCA reaction, blue-dyed area) [1] | inhibition at 10 µM [2] | inhibition at 100 µM [2] | inhibition at 100 µM [3] | responders at 100 mg/kg [4]
1 | CCOc1cc(C=C2CCNC2=O)cc(CSc2ccccc2)c1O [XXVII] | 25% | 96% | 100% | 100% | 75%
2 | CCOc1cc(C=C2C(=O)NN(c3ccccc3)C2=O)cc(CSc2ccccc2)c1O [XXXI] | 30% | 92% | 100% | 59% | 20%
